Experiment [1] in a line: DPPH radical-scavenging activity assay. Conditions: for DPPH Radical Scavenging (%) after 30 min / DPPH Radical Scavenging (%) after 60 min: mean ± SD. How it is done:
2,2-Diphenylpicrylhydrazyl (DPPH) was purchased from Sigma-Aldrich (Steinheim, Germany). DPPH radical-scavenging activity was determined according to the method described by Brand-Williams et al. using (+)-catechin (Sigma-Aldrich, Steinheim, Germany) as the positive control. The chalcone samples were previously dissolved in DMSO and MeOH at the molar concentration of 2 × 10^–3 M. The positive control sample was dissolved in DMSO at the same molar concentration. The DPPH stock solution was diluted 10× with methanol to obtain the concentration of 1 × 10^–4 M. The measurements: 70 μL of the sample was added to 4 mL of the DPPH solution, and the samples were left for 30 or 60 min at room temperature in the dark. The absorbance was recorded at 517 nm by s Varian Cary 50 spectrophotometer. The control was prepared as above without any sample.
DPPH free-radical scavenging activity was calculated using the following Formula (2):(2) Scavenging activity [%]=[Absorbance of control−Absorbance of test sample]/Absorbance control×100 where the absorbance of control is the absorbance of DPPH radicals in the absence of compounds, and the absorbance of the test sample is the absorbance in the presence of the studied compound.
On the technique in general: The DPPH test is a chemical assay of radical scavenging.

The target of experiment [2] is T1, Acetylcholinesterase (AChE, E.C. 3.1.1.7, from human erythrocytes) (Homo sapiens, UniProt P22303).
T1 construct: Acetylcholinesterase (AChE, E.C. 3.1.1.7, from human erythrocytes); purchased Sigma-Aldrich (Steinheim, Germany); host or cells: human erythrocytes (natural source)
The experiment in a line: AChE inhibition (Ellman method). It is filed as biochemical. How it is done:
(§1) The inhibitory activities against AChE and BuChE of the prepared compounds were performed by means of the method previously developed by Ellman et al. using neostigmine as the reference compound [68]. This is based on the reaction of released thiocholine to give a coloured product with a chromogenic reagent. Seven different concentrations of the compounds in the range 10^−9–10^−3 M were measured at 412 nm. All the assays were performed in the 0.1 M NaH2PO4/Na2HPO4 buffer (pH = 8) using the Varian Cary 50 spectrophotometer. 5,5′-Dithio-bis(2-nitrobenzoic acid) (DTNB) was used to measure the anti-AChE activity. […] Briefly, 140 µL of 0.1 mM sodium phosphate buffer (pH 8.0), 20 µL of DTNB, 20 µL of the assay solution and 20 µL of the AChE/BuChE solution were added and incubated for 15 min at 25 °C. The reaction was then initiated by adding 10 µL of acetylthiocholine iodide or butylthiocholine iodide. Yellow anion (2-nitro-5-thiobenzoic acid) formation was recorded at 412 nm for 10 min. It was determined by preparing an identical solution of the enzyme in the absence of tested compounds (as the control). Control and inhibitor readings were corrected with a blank read. All operations were repeated three times. The inhibition properties are reported as the IC50 values, which were determined graphically from the inhibition curves of log inhibitor concentration vs. the percentage of inhibition. The IC50 values represent the concentration of the inhibitor required for 50% inhibition of the enzyme.
Background: DTNB colorimetry detects thiols as they appear.

The target in experiment [3] is T2, butyrylcholinesterase (BuChE, E.C. 3.1.1.8, from equine serum) (Equus caballus, UniProt P81908).
T2 construct: butyrylcholinesterase (BuChE, E.C. 3.1.1.8, from equine serum); purchased Sigma-Aldrich (Steinheim, Germany); host or cells: equine serum (natural source)
Description: BuChE inhibition (Ellman method). It is filed as biochemical. How it is done: as §1

Setting [4] is: samples dissolved in DMSO (stock 2 × 10^−3 M), three experiments.
Setting [5] is: samples dissolved in MeOH (stock 2 × 10^−3 M).
Setting [6] is: pH 8 phosphate buffer, 25 °C, n = 9, read-out: AChE IC50 Mean ± SD.
[7] abbreviates: pH 8 phosphate buffer, 25 °C, n = 9, read-out: BuChE IC50 Mean ± SD.

Like-named read-outs stand apart in the source and are kept apart here. Where only a bound is given, the exact number is not on record here.

T1 sequence (P22303 32-617 isoform P22303-2 limits assumed): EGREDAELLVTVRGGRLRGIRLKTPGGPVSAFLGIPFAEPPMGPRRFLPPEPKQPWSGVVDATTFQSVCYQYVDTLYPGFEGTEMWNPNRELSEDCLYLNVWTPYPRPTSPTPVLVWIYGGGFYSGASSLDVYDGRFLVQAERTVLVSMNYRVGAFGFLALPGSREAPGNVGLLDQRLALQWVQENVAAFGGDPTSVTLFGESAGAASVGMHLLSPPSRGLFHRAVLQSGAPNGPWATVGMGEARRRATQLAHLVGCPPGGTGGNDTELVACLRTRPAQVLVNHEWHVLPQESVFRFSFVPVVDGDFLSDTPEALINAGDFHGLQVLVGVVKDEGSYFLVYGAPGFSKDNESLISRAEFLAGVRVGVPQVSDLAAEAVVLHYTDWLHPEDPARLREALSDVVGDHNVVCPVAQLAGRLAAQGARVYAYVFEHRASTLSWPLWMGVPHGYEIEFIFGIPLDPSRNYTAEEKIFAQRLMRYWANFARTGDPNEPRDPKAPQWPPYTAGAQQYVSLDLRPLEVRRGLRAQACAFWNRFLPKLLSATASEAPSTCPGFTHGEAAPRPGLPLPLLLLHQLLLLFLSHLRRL
T2 sequence (P81908 whole entry): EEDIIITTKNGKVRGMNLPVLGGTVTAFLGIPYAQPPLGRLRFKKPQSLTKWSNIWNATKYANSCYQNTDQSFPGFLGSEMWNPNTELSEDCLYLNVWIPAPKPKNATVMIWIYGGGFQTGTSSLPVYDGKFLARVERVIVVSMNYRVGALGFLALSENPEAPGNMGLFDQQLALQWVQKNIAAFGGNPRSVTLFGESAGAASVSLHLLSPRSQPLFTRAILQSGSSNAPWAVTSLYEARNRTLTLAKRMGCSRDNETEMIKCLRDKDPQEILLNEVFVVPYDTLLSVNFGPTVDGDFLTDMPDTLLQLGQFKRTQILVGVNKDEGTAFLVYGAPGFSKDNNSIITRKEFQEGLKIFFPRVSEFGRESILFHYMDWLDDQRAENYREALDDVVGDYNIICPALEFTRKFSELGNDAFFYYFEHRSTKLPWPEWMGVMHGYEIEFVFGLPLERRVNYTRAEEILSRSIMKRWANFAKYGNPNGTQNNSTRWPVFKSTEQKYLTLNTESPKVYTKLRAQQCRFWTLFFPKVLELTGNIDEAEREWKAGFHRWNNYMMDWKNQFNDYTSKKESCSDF

Take `Oc1cc(O)c2c(c1)O[C@H](c1ccc(O)c(O)c1)[C@@H](O)C2` [(+)-catechin, reference compound]: the “DPPH Radical Scavenging (%) after 30 min” value in experiment [1] (setting [4]) stood at 94.14 ± 0.44%.

In the case of `COc1cc(O)cc(O)c1C(=O)/C=C/c1ccccc1` [CA, cardamonin], the “DPPH Radical Scavenging (%) after 30 min” value is listed as 2.09 ± 0.05% in experiment [1] (setting [4]) and 0.79 ± 0.07% in experiment [1] (setting [5]). Besides, the “DPPH Radical Scavenging (%) after 60 min” value in experiment [1] (setting [5]) was found to be 1.33 ± 0.14%. The IC50 was 67.87 ± 0.01 µM in experiment [2] and 75.29 ± 0.41 µM in experiment [3].

Turning to `COc1ccc(/C=C/C(=O)c2c(O)cc(OC)cc2OC)cc1` [HCH, 2′-hydroxy-4,4′,6′-trimethoxychalcone], the figures for the “DPPH Radical Scavenging (%) after 30 min” value in experiment [1] (setting [4]) and in experiment [1] (setting [5]) were 2.09 ± 0.03% and 0.30 ± 0.06%, respectively. The “DPPH Radical Scavenging (%) after 60 min” value in experiment [1] (setting [5]) is 0.35 ± 0.05%. The figures for the IC50 in experiment [2] (setting [6]) and in experiment [3] (setting [7]) were above 100 µM and 76.5 ± 3.03 µM, respectively. Besides, the “inhibitory properties towards AChE” value in experiment [2] (result in words) is “did not show any inhibitory properties”.

Turning to `CC(C)=CCc1c(O)ccc(C(=O)/C=C/c2ccc(O)cc2)c1O` [IBC, isobavachalcone], the entries for the “DPPH Radical Scavenging (%) after 30 min” value in experiment [1] (setting [4]) and in experiment [1] (setting [5]) were 2.36 ± 0.07% and 0.61 ± 0.01%, respectively. Moreover, the “DPPH Radical Scavenging (%) after 60 min” value in experiment [1] (setting [5]) is on record as 1.03 ± 0.06%. For the same compound, the IC50 was found to be 35.48 ± 0.01 µM in experiment [2] (setting [6]) and 43.05 ± 0.16 µM in experiment [3] (setting [7]).

For the compound `C=CC(C)(C)c1cc(/C=C/C(=O)c2ccc(O)cc2)c(OC)cc1O` [LIC, licochalcone A], the “DPPH Radical Scavenging (%) after 30 min” value in experiment [1] (setting [4]) is given as 29.24 ± 0.70%; in experiment [1] (samples dissolved in DMSO (stock 2 × 10^−3 M), three experiments, listed as licochalcone A), ~ 29%; in experiment [1] (setting [5]), 26.50 ± 0.92%. In addition, the “DPPH Radical Scavenging (%) after 60 min” value is recorded as 29.60 ± 0.98% in experiment [1] (setting [5]) and ~ 29% in experiment [1] (samples dissolved in MeOH (stock 2 × 10^−3 M), listed as licochalcone A). Also, the “DPPH radical scavenging (%)” value in experiment [1] (solvent and time not stated) is reported as 29%. The half-maximal inhibitory concentration (IC50) is 23.41 ± 0.02 µM in experiment [2] and 42.28 ± 0.06 µM in experiment [3].

In experiment [3], `CN(C)C(=O)Oc1cccc([N+](C)(C)C)c1` [Neostygmine, neostigmine bromide, reference compound] gave a 50% inhibitory concentration (IC50) of 0.03 ± 0.01 µM.

With `COc1cc(O)c(CC=C(C)C)c(O)c1C(=O)/C=C/c1ccc(O)cc1` [XN, xanthohumol], the “DPPH Radical Scavenging (%) after 30 min” value is 7.99 ± 0.05% in experiment [1] (setting [4]) and 4.34 ± 0.05% in experiment [1] (setting [5]). For the same compound, the “DPPH Radical Scavenging (%) after 60 min” value in experiment [1] (setting [5]) turned out to be 6.72 ± 0.30%. The IC50 in experiment [2] (setting [6]) was found to be 40.81 ± 0.04 µM; in experiment [3] (setting [7]) it was 65.79 ± 0.34 µM.

One may read the IC50 as the midpoint of a concentration-inhibition curve.

The record behind these values is PMC10146426, “Naturally Occurring Chalcones with Aggregation-Induced Emission Enhancement Characteristics” (Molecules, 2023).
